Paper PMC6030199, “The mitochondrial citrate carrier, SLC25A1, drives stemness and therapy resistance in non-small cell lung cancer” (Cell Death and Differentiation, 2018)

Molecular target: T1, SLC25A1 (mitochondrial citrate carrier) (Homo sapiens, UniProt P53007)
T1 construct: Histidine-tagged recombinant purified SLC25A1
Assay: SPR (Biacore […], NTA chip, […] steady-state fit)
Type: binding

T1 sequence (P53007 14-311): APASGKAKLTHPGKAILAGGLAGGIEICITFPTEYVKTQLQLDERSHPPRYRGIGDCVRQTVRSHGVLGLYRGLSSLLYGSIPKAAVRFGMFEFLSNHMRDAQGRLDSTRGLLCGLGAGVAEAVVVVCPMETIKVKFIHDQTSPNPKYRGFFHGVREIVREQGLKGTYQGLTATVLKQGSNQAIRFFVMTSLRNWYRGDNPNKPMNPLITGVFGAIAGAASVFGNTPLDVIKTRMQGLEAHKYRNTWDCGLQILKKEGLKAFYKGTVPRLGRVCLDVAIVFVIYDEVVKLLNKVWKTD

Kd	Structure (SMILES)
63.6 µM	O=C(O)c1ccc(Cl)c(S(=O)(=O)Nc2cccc([N+](=O)[O-])c2)c1 [CTPI-1]
3.5 µM	O=C(O)c1ccccc1NS(=O)(=O)c1ccc(Cl)c([N+](=O)[O-])c1 [CTPI-2]
